What is called AC50 is the concentration giving half of the maximal activity seen.

These results are taken from PubChem BioAssay AID493102 (Broad Institute, 2011).

The assay relates to SK-MEL-5 TRPM1-promoter luciferase reporter, 24 h. The assay is described as follows: reducers of TRPM1 reporter luminescence, concentration series – cell-based, SK-MEL-5, cherry-picked, set 4, MITF inhibitor project, dose response (AID 493102).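 Further: actives lower the luciferase signal so the potency reflects inhibition of reporter expression.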

With `Cc1ccc2c(c1)COc1c3ccc(C(=O)O)cc3nn1-2`, the AC50 was 2.23 µM.

On to `C/C(=N/NC(=O)C(O)(c1ccccc1)c1ccccc1)c1ccc([N+](=O)[O-])o1`, for which the half-maximal activity concentration (AC50) is 9.84 µM.

Turning to `O=C1NC(=O)N(CCc2ccc(F)cc2)C(=O)/C1=C\C=C\c1ccccc1`, the half-maximal activity concentration (AC50) is 8.26 µM.

Regarding `CCN1CCN(c2ccc(S(=O)(=O)N3CCOCC3)cc2NC(=O)/C=C/c2ccc([N+](=O)[O-])cc2)CC1`, the concentration at half-maximal activity (AC50) was 8.13 µM.

Take `COc1cc(NC(=O)c2[nH]cnc2C(N)=O)cc(C(=O)Nc2cccc(C(F)(F)F)c2)c1`: the AC50 is 10.9 µM.

Take `Cc1cc(C)c2c(N)c3cccc(C)c3nc2n1`: the AC50 was 3.21 µM.

Turning to `Cc1ccc(C(C)C)c(OCc2nn(CC(=O)c3ccc(OC(F)F)cc3)c3[n+]2CCCCC3)c1`, the AC50 is 9.17 µM.

As for `CCCN1CCC(NCc2cn(C)nc2-c2ccc(Oc3ccccc3)cc2)CC1`, the concentration at half-maximal activity (AC50) is 8.35 µM.

Turning to `Cc1cc(Br)ccc1NC(=O)CNC(=O)Cn1ncc(Cl)c(Cl)c1=O`, the AC50 was 7.47 µM.

In the case of `Cc1ccc(NCC(=O)N/N=C\c2ccc([N+](=O)[O-])o2)cc1`, the AC50 is 19.1 µM.

With `CCN(CC)CCCNC1=C(Cl)C(=O)c2ccccc2C1=O`, the AC50 is 1.79 µM.

Turning to `Cc1ccc(-c2nc(C(=O)NCCCN(C)C)cc3c2[nH]c2ccccc23)cc1`, the AC50 is 11.2 µM.

Take `COc1cc(C(=O)Oc2c(CN3CCOCC3)cc(Cl)c3cccnc23)cc(OC)c1OC`: the concentration at half-maximal activity (AC50) was 7.56 µM.

For `CCN(CCO)c1ccc(N=Nc2cc(C)[nH]n2)cc1`, the AC50 is 3.6 µM.

With `CCSc1ccccc1C(=O)n1nnc2ccccc21`, the AC50 is 11.8 µM.

Turning to `Cc1cc(C)cc(NS(=O)(=O)c2ccc3c(c2)c(=O)n(C)c(=O)n3C)c1`, the half-maximal activity concentration (AC50) was 4.67 µM.

In the case of `CCOCCCNC(=O)/C(C#N)=C/c1ccc(Cl)c([N+](=O)[O-])c1`, the AC50 is 7.38 µM.

On to `CC(C)(c1ccccc1)c1ccc(OCC(O)CNC2CCN(Cc3ccccc3)CC2)cc1` (configuration not stated), for which the AC50 was 7.94 µM.

In the case of `O=C1c2cc(F)ccc2-n2c1nc1ccccc1c2=O`, the AC50 was 1.05 µM.

With `COc1ccccc1OCCN1CSC(=S)N(C)C1`, the half-maximal activity concentration (AC50) was 12.2 µM.

Turning to `CN(C)c1ccc(/C=C(\C#N)c2ccccn2)cc1`, the half-maximal activity concentration (AC50) is 6.32 µM.

Regarding `c1ccc2cc3c(NCCN4CCOCC4)ccnc3cc2c1`, the concentration at half-maximal activity (AC50) is 2.91 µM.

`CCn1c(/C=C/N(C)c2ccccc2)[n+](CC)c2ccc(Cl)cc21`: the AC50 is 6.86 µM.

Take `CCCc1ccc(-c2ccc(/C=C/C(=O)O)cc2)nc1`: the half-maximal activity concentration (AC50) is 0.039 µM.

Regarding `CNC(=O)COC(=O)c1ccccc1C(=O)c1ccc(Cl)c([N+](=O)[O-])c1`, the half-maximal activity concentration (AC50) is 9.77 µM.

For `O=C(Cn1ncc(Cl)c(Cl)c1=O)NC1CCCCC1`, the AC50 was 6.82 µM.

As to `O=C(CCl)N(Cc1cc(=O)[nH]c2ccccc12)c1ccccc1`, the half-maximal activity concentration (AC50) is 5.42 µM.

For `CCCCN1C=CC(=C2C(=O)c3ccccc3C2=O)C=C1`, the AC50 is 0.921 µM.

Consider `O=C(c1ccccc1)c1cc(Cl)ccc1N1C(=O)C=CC1=O`, for which the AC50 was 11.9 µM.

In the case of `Cc1nc(NC(=O)/C=C/c2ccccc2)n[nH]1`, the half-maximal activity concentration (AC50) was 17.8 µM.

For `Cn1nnnc1Sc1ncnc2scc(-c3cccs3)c12`, the AC50 was 7 µM.

`O=C(/C=C/c1ccc(Cl)cc1)c1ccc([N+](=O)[O-])o1`: the concentration at half-maximal activity (AC50) is 5.32 µM.

Consider `O=C(/C=C/c1ccc([N+](=O)[O-])s1)N1CCCCC1`, for which the AC50 is 4.16 µM.

As for `C=CCN1C(=O)NC(=O)/C(=C/C=C/c2ccccc2)C1=O`, the AC50 was 5.94 µM.

Turning to `C#CC(=O)N(c1ccc(OC)cc1OC)C(C(=O)NC1CCCC1)c1cccs1` (configuration not stated), the AC50 is 4.73 µM.

Turning to `CCN1CCN(/C=N/c2nc3c(s2)CCCC3)CC1`, the half-maximal activity concentration (AC50) is 6.42 µM.

In the case of `Cc1ccc(-c2cn(-c3ccc(SC(F)F)cc3)c3[n+]2CCC3)cc1`, the half-maximal activity concentration (AC50) is 1.64 µM.

Take `CC(=O)c1cccc(NC(=O)/C=C/c2ccc([N+](=O)[O-])s2)c1`: the concentration at half-maximal activity (AC50) is 7.16 µM.

As to `CCCCCCN1C=CC(=C2C(=O)c3ccccc3C2=O)C=C1`, the AC50 was 3.86 µM.

Take `COc1cc(NC(=O)COc2ccccc2[N+](=O)[O-])ccc1NC(=O)c1cccs1`: the AC50 is 10.1 µM.

As to `CN(C)CC1CC/C(=C\c2ccc(O)cc2)C1=O` (configuration not stated), the AC50 was 12.9 µM.

Regarding `COc1ccccc1C(=O)Nc1nc(-c2ccc(S(=O)(=O)N3CCOCC3)cc2)cs1`, the AC50 was 4.34 µM.

`O=C(Nc1nc2cc3c(cc2s1)OCO3)C1=COCCO1`: the half-maximal activity concentration (AC50) is 3.77 µM.

Take `Cc1ccn2c(Nc3ccccc3)c(-c3ccccn3)nc2c1`: the concentration at half-maximal activity (AC50) was 9.31 µM.

Take `COc1ccccc1NS(=O)(=O)c1cc(NC(=O)c2ccc(Cl)nc2)ccc1Cl`: the half-maximal activity concentration (AC50) was 11.3 µM.

On to `CN(C)c1nc(C=C(C#N)C#N)c(Cl)n1-c1ccc(F)cc1`, for which the AC50 is 3.92 µM.

`O=C(Nc1nc(-c2ccccn2)cs1)c1ccc(F)c(S(=O)(=O)N2CCOCC2)c1`: the AC50 was 5.7 µM.

With `O=C(Nc1ccc(F)cc1)c1nc(S(=O)(=O)Cc2ccccc2)ncc1Cl`, the AC50 was 9.45 µM.

As to `O=C1NC(=O)N(Cc2ccccc2)C(=O)/C1=C\C=C\c1ccco1`, the AC50 is 6.29 µM.

`Cc1cc(C)cc(OCC(=O)N/N=C/c2ccc([N+](=O)[O-])o2)c1`: the AC50 is 7.12 µM.

Take `Cc1cc(Sc2ncnc(N)c2[N+](=O)[O-])ncn1`: the concentration at half-maximal activity (AC50) is 7.61 µM.

Take `CC(C)(C)c1ccc(-c2noc(CCC(=O)NCc3ccco3)n2)cc1`: the half-maximal activity concentration (AC50) is 0.122 µM.

As to `CCN(CC)S(=O)(=O)c1cccc(C(=O)N/N=C/c2ccc([N+](=O)[O-])o2)c1`, the AC50 was 14.1 µM.

As to `O=C(/C=C/c1ccc(Cl)c([N+](=O)[O-])c1)c1ccc(O)cc1`, the AC50 is 17.4 µM.

Regarding `COc1cccc(NC(=O)Nc2cccc(C(=O)O)c2)c1`, the concentration at half-maximal activity (AC50) is 2.37 µM.

`O=C1NC(=S)NC(=O)C1=Cc1cccn1-c1ccc(O)cc1`: the AC50 is 11.4 µM.

With `COc1ccc(S(=O)(=O)N2CCCCC2)cc1NC(=O)c1ccc([N+](=O)[O-])o1`, the AC50 is 9.14 µM.

For `Cn1cc([N+](=O)[O-])c(C(=O)Nc2cc(Oc3ccccc3)cc([N+](=O)[O-])c2)n1`, the AC50 is 12.4 µM.

Take `Cn1nc([N+](=O)[O-])nc1S(C)(=O)=O`: the AC50 is 9.2 µM.

On to `Cc1[nH]n(-c2ccccc2)c(=O)c1N=Nc1cccc(C(=O)O)c1`, for which the half-maximal activity concentration (AC50) was 8.07 µM.

Turning to `FC(F)(F)c1cc(CCN2CCNC[C@@H]2Cc2ccccc2)cc(C(F)(F)F)c1`, the AC50 was 12.3 µM.

For the compound `Cn1nnnc1Sc1ncnc2scc(-c3ccc[nH]3)c12`, the half-maximal activity concentration (AC50) was 7.32 µM.

Regarding `CCOc1ccc(-n2c(-c3ccc(OC)cc3)c[n+]3c2CCCCC3)cc1`, the AC50 is 2.13 µM.

With `Cc1ccc2nc(C)cc(Nc3ccc([N+](=O)[O-])cc3)c2c1`, the AC50 is 5.88 µM.

As for `Cc1ccccc1C(=O)N1CCN(c2ccc(NC(=O)c3ccc([N+](=O)[O-])o3)cc2)CC1`, the half-maximal activity concentration (AC50) was 6.2 µM.

For `CCOC(=O)/C=c1/s/c(=C/c2ccc3cc(OC)ccc3c2)c(=O)n1CC(=O)NCC1CCCO1` (configuration not stated), the concentration at half-maximal activity (AC50) was 6.79 µM.

Take `O=C1NC(=O)N(Cc2ccc(F)cc2)C(=O)/C1=C\C=C\c1ccco1`: the half-maximal activity concentration (AC50) is 6.63 µM.

Take `CCN1CCc2c(sc(NC(=O)c3ccc(S(=O)(=O)N4CCCC4)cc3)c2C(=O)NC)C1`: the half-maximal activity concentration (AC50) was 9.14 µM.

Regarding `Cc1ccc(S(=O)(=O)N2CCCCC2)cc1NC(=O)Cn1ncc(Cl)c(Cl)c1=O`, the half-maximal activity concentration (AC50) was 6.21 µM.

Regarding `CC1=NC(=O)C(N=Nc2cccc(C(=O)O)c2)N1c1ccccc1` (configuration not stated), the concentration at half-maximal activity (AC50) is 8.62 µM.

Turning to `COc1ccc(NC(=O)CCC(=O)N/N=C/c2ccc([N+](=O)[O-])s2)cc1`, the AC50 is 7.62 µM.

`N=c1n(CCN2CCCC2)c2ccccc2n1CC(O)c1ccc(Cl)c(Cl)c1` (configuration not stated): the AC50 was 11.8 µM.

As for `CCOC(=O)N1CCN(C(=O)c2ccc(Cn3c(=S)[nH]c4ccc(Br)cc4c3=O)cc2)CC1`, the AC50 is 3.52 µM.

As for `O=C(Cc1ccccc1)NCC(=O)N/N=C/c1ccc([N+](=O)[O-])s1`, the AC50 was 16.1 µM.

Regarding `COc1cccc(/C=N/Nc2ccc(C(=O)O)cc2)c1O`, the AC50 was 0.333 µM.

Turning to `N=c1n(CC(=O)c2ccc(Br)cc2)c2ccccc2n1Cc1ccccc1`, the AC50 was 6.41 µM.

Consider `CCOC(=O)COc1ccc2ccccc2c1/C=C/[N+](=O)[O-]`, for which the AC50 was 8.17 µM.

For the compound `Cc1c(Cl)c([N+](=O)[O-])nn1Cc1ccc(C(=O)N/N=C\c2cc(Cl)ccc2O)o1`, the half-maximal activity concentration (AC50) was 3.47 µM.

With `O=C(c1ccc([N+](=O)[O-])s1)N1CCN(c2ccccn2)CC1`, the AC50 was 12.2 µM.

For the compound `CCOC(=O)c1c(C)oc2c1C(=O)c1ccccc1C2=O`, the AC50 was 3.18 µM.

For the compound `COc1ccc(-c2cc(-c3ccccc3)c(C#N)c(S(C)=O)n2)cc1` (configuration not stated), the AC50 was 11.8 µM.

In the case of `O=C(Nc1cccc(Cl)c1)Nc1cc(S(=O)(=O)N2CCCCC2)ccc1Cl`, the concentration at half-maximal activity (AC50) is 12 µM.

For the compound `CC(=O)SC(C[N+](=O)[O-])c1cn(C(C)=O)c2ccccc12` (configuration not stated), the half-maximal activity concentration (AC50) was 3.54 µM.

As to `O=C(O)c1cc(N/N=C/C(Cl)=C/c2ccccc2)ccc1Cl`, the concentration at half-maximal activity (AC50) is 10.4 µM.

Consider `COC(=O)[C@@H]1C[C@]2(OC(=O)c3ccccc3)C=CC(=O)C[C@@H]2N1C(=O)OCc1ccccc1`, for which the AC50 is 14 µM.

For `CC(C)(C)C(=O)Nc1cc2nn(-c3ccccc3)nc2cc1Cl`, the AC50 was 0.495 µM.

Consider `COc1cc2c(cc1/C=C/[N+](=O)[O-])OCO2`, for which the half-maximal activity concentration (AC50) is 8.98 µM.
